Consider eleven compounds from patent US9695154B2, “Heteroaryl inhibitors of sumo activating enzyme” (MILLENNIUM PHARMACEUTICALS, INC., priority 2013, dated 2017).

Molecules are shown by their SMILES. A value given as a limit tells only on which side of the number the result lay.

In the experiment the target is T1, recombinant human SAE enzyme (Homo sapiens, UniProt Q9UBT2).
T1 sequence (Q9UBT2 1-640): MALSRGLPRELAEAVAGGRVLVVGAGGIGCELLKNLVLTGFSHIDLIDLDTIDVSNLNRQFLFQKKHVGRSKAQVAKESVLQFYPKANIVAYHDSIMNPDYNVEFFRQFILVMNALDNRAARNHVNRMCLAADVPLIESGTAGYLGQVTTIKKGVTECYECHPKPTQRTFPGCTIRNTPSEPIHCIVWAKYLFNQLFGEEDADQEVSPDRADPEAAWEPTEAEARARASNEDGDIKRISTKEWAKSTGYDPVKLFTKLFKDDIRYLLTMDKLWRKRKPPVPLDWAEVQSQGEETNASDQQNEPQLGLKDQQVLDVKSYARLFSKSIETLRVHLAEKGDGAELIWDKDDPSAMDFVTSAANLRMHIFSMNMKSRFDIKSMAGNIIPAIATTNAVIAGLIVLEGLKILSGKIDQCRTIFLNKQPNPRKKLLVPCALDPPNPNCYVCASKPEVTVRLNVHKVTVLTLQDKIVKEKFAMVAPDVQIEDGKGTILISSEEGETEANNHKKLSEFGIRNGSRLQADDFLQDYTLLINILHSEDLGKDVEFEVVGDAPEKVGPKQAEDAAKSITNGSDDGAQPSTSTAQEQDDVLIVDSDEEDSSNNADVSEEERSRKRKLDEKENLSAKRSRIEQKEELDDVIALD
T1 sequence (Q9UBE0 1-346 partner): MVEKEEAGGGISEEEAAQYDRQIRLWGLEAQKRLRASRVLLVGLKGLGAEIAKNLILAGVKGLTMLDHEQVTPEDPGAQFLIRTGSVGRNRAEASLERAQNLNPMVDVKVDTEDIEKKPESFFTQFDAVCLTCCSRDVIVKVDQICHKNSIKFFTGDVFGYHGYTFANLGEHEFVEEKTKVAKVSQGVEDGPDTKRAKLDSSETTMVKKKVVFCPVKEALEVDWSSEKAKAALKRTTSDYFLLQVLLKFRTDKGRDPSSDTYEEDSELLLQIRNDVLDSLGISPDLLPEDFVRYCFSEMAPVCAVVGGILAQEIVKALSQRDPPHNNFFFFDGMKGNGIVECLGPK
Description: SAE HTRF Enzyme Assay. Format: biochemical. Particulars: for IC50: class symbols A-C; for Percent Inhibition / inhibition at 0.111 µM: compound concentration 0.111 μM; for Percent Inhibition: 0.111 µM; for inhibition at 0.111 µM: read-out: Percent Inhibition. The method, then:
The SAE enzymatic reaction totals 50 μl and contains 50 mM HEPES Hemisodium (pH 7.5), 0.05% BSA, 5 mM MgCl2, 0.5 μM ATP, 250 μM GSH, 0.01 μM Ubc9-GST, 0.125 μM Sumo-Flag and 0.11 nM recombinant human SAE enzyme. The enzymatic reaction mixture with and without inhibitor, Is incubated at 24° C. for 105 min in a 384-well plate before termination with […] of Stop/Detection buffer (0.1M HEPES Hemisodium pH 7.5, 0.05% Tween20, 20 mM EDTA, 410 mM KF, 0.53 nM Europium-Cryptate labeled monoclonal anti-Flag M2 Antibody (CisBio International) and 8.125 μg/ml PHYCOLINK goat anti-GST allophycocyanin (XL-APC) antibody (Prozyme)). After incubation for 2 hours at 24° C., quantification of FRET is performed on the Pherostar™ (BMG Labtech). Percentage inhibition values at a single concentration or enzyme inhibition (IC50) values are determined from those curves. One skilled in the art will appreciate that the values generated either as percentage inhibition at a single concentration or IC50 values are subject to experimental variation.

For `CC(c1ccc(Cl)o1)n1ccc(C(=O)c2cncnc2N[C@@H]2C[C@H](COS(N)(=O)=O)[C@@H](O)C2)n1` (single isomer, unassigned) [Compound I-79, [(1R,2S,4R)-4-{[5-({1-[(1S)-1-(5-chloro-2-furyl)ethyl]-1H-pyrazol-3-yl}carbonyl)pyrimidin-4-yl]amino}-2-hydroxycyclopentyl]methyl sulfamate or [(1R,2S,4R)-4-{[5-({1-[(1R)-1-(5-chloro-2-furyl)ethyl]-1H-pyrazol-3-yl}carbonyl)pyrimidin-4-yl]amino}-2-hydroxycyclopentyl]methyl sulfamate], the IC50 was under 10 nM and the “Percent Inhibition” value worked out at 98%.

For `CC#CC(C)n1ccc(C(=O)c2cncnc2N[C@@H]2C[C@H](COS(N)(=O)=O)[C@@H](O)C2)n1` (single isomer, unassigned) [Compound I-86, {(1R,2S,4R)-2-hydroxy-4-[(5-{[1-(2S)-(pent-3-yn-2-yl)-1H-pyrazol-3-yl]carbonyl}pyrimidin-4-yl)amino]cyclopentyl}methyl sulfamate or {(1R,2S,4R)-2-hydroxy-4-[(5-{[1-(2R)-(pent-3-yn-2-yl)-1H-pyrazol-3-yl]carbonyl}pyrimidin-4-yl)amino]cyclopentyl}methyl sulfamate], the IC50 fell in the range of 100 to 1000 nM and the “Percent Inhibition” value worked out at 35%.

`CC(c1cccc(Cl)c1)n1ccc(C(=O)c2cncnc2N[C@@H]2C[C@H](COS(N)(=O)=O)[C@@H](O)C2)n1` (single isomer, unassigned) [Compound I-133, [(1R,2S,4R)-4-{[5-({1-[(1S)-1-(3-chlorophenyl)ethyl]-1H-pyrazol-3-yl}carbonyl)pyrimidin-4-yl]amino}-2-hydroxycyclopentyl]methyl sulfamate or [(1R,2S,4R)-4-{[5-({1-[(1R)-1-(3-chlorophenyl)ethyl]-1H-pyrazol-3-yl}carbonyl)pyrimidin-4-yl]amino}-2-hydroxycyclopentyl]methyl sulfamate]: the IC50 was in the range of 10 to 100 nM and the “Percent Inhibition” value is given as 61%.

On to `Cc1cc(C(=O)c2cncnc2N[C@@H]2C[C@H](COS(N)(=O)=O)[C@@H](O)C2)nn1C(C)c1cccc(Cl)c1` (single isomer, unassigned) [Compound I-172, [(1R,2S,4R)-4-{[5-({1-[(1R)-1-(3-chlorophenyl)ethyl]-5-methyl-1H-pyrazol-3-yl}carbonyl)pyrimidin-4-yl]amino}-2-hydroxycyclopentyl]methyl sulfamate or [(1R,2S,4R)-4-{[5-({1-[(1S)-1-(3-chlorophenyl)ethyl]-5-methyl-1H-pyrazol-3-yl}carbonyl)pyrimidin-4-yl]amino}-2-hydroxycyclopentyl]methyl sulfamate], for which the IC50 lay within 10 to 100 nM and the inhibition at 0.111 µM worked out at 83%.

For the compound `CCC(c1cccc(Br)c1)n1ccc(C(=O)c2cncnc2N[C@@H]2C[C@H](COS(N)(=O)=O)[C@@H](O)[C@@H]2F)c1` (single isomer, unassigned) [Compound I-175, [(1R,2R,3R,4R)-4-{[5-({1-[(1S)-1-(3-bromophenyl)propyl]-1H-pyrrol-3-yl}carbonyl)pyrimidin-4-yl]amino}-3-fluoro-2-hydroxycyclopentyl]methyl sulfamate or [(1R,2R,3R,4R)-4-{[5-({1-[(1R)-1-(3-bromophenyl)propyl]-1H-pyrrol-3-yl}carbonyl)pyrimidin-4-yl]amino}-3-fluoro-2-hydroxycyclopentyl]methyl sulfamate], the IC50 is under 10 nM and the inhibition at 0.111 µM stood at 99%.

With `CC(c1cccc(Br)c1)n1ccc(C(=O)c2cncnc2N[C@@H]2C[C@H](COS(N)(=O)=O)[C@@H](O)[C@@H]2F)c1` (single isomer, unassigned) [Compound I-192, [(1R,2R,3R,4R)-4-{[5-({1-[(1S)-1-(3-bromophenyl)ethyl]-1H-pyrrol-3-yl}carbonyl)pyrimidin-4-yl]amino}-3-fluoro-2-hydroxycyclopentyl]methyl sulfamate or [(1R,2R,3R,4R)-4-{[5-({1-[(1R)-1-(3-bromophenyl)ethyl]-1H-pyrrol-3-yl}carbonyl)pyrimidin-4-yl]amino}-3-fluoro-2-hydroxycyclopentyl]methyl sulfamate], the IC50 is under 10 nM and the inhibition at 0.111 µM amounted to 98%.

Consider `CC(c1ccc(C(F)(F)F)o1)n1ccc(C(=O)c2cncnc2N[C@@H]2C[C@H](COS(N)(=O)=O)[C@@H](O)[C@@H]2F)c1` (single isomer, unassigned) [Compound I-304, [(1R,2R,3R,4R)-3-fluoro-2-hydroxy-4-({5-[(1-{(1S)-1-[5-(trifluoromethyl)-2-furyl]ethyl}-1H-pyrrol-3-yl)carbonyl]pyrimidin-4-yl}amino)cyclopentyl]methyl sulfamate or [(1R,2R,3R,4R)-3-fluoro-2-hydroxy-4-({5-[(1-{(1R)-1-[5-(trifluoromethyl)-2-furyl]ethyl}-1H-pyrrol-3-yl)carbonyl]pyrimidin-4-yl}amino)cyclopentyl]methyl sulfamate], for which the IC50 lay within 10 to 100 nM and the inhibition at 0.111 µM came to 91%.

Consider `CC(c1cccc(Br)c1)n1ccc(C(=O)c2cncnc2N[C@@H]2C[C@H](COS(N)(=O)=O)[C@@H](O)C2)n1` (single isomer, unassigned) [Compound I-315, [(1R,2S,4R)-4-{[5-({1-[(1S)-1-(3-bromophenyl)ethyl]-1H-pyrazol-3-yl}carbonyl)pyrimidin-4-yl]amino}-2-hydroxycyclopentyl]methyl sulfamate or [(1R,2S,4R)-4-{[5-({1-[(1R)-1-(3-bromophenyl)ethyl]-1H-pyrazol-3-yl}carbonyl)pyrimidin-4-yl]amino}-2-hydroxycyclopentyl]methyl sulfamate], for which the IC50 is under 10 nM and the inhibition at 0.111 µM amounted to 99%.

On to `NS(=O)(=O)OC[C@H]1C[C@@H](Nc2ncncc2C(=O)c2ccn(C3CCc4ccccc43)n2)[C@H](O)[C@@H]1O` (single isomer, unassigned) [Compound I-323, {(1R,2R,3S,4R)-4-[(5-{[1-((1R)-2,3-dihydro-1H-inden-1-yl)-1H-pyrazol-3-yl]carbonyl}pyrimidin-4-yl)amino]-2,3-dihydroxycyclopentyl}methyl sulfamate or {(1R,2R,3S,4R)-4-[(5-{[1-((1S)-2,3-dihydro-1H-inden-1-yl)-1H-pyrazol-3-yl]carbonyl}pyrimidin-4-yl)amino]-2,3-dihydroxycyclopentyl}methyl sulfamate], for which the IC50 lay within 10 to 100 nM and the inhibition at 0.111 µM amounted to 82%.

As for `CC(c1ccc(Cl)o1)n1ccc(C(=O)c2cncnc2N[C@@H]2C[C@H](COS(N)(=O)=O)[C@@H](O)[C@@H]2F)c1` (single isomer, unassigned) [Compound I-350, [(1R,2R,3R,4R)-4-{[5-({1-[(1S)-1-(5-chloro-2-furyl)ethyl]-1H-pyrrol-3-yl}carbonyl)pyrimidin-4-yl]amino}-3-fluoro-2-hydroxycyclopentyl]methyl sulfamate or [(1R,2R,3R,4R)-4-{[5-({1-[(1R)-1-(5-chloro-2-furyl)ethyl]-1H-pyrrol-3-yl}carbonyl)pyrimidin-4-yl]amino}-3-fluoro-2-hydroxycyclopentyl]methyl sulfamate], the IC50 is under 10 nM and the inhibition at 0.111 µM was determined as 96%.

For `CC(c1ccccc1)n1ccc(C(=O)c2cncnc2N[C@@H]2C[C@H](COS(N)(=O)=O)[C@@H](O)[C@H]2O)n1` (single isomer, unassigned) [Compound I-351, {(1R,2R,3S,4R)-2,3-dihydroxy-4-[(5 -{[1-((1S)-1-phenylethyl)-1H-pyrazol-3-yl]carbonyl}pyrimidin-4-yl)amino]cyclopentyl}methyl sulfamate or {(1R,2R,3S,4R)-2,3-dihydroxy-4-[(5-{[1-((1R)-1-phenylethyl)-1H-pyrazol-3-yl]carbonyl}pyrimidin-4-yl)amino]cyclopentyl}methyl sulfamate], the IC50 is under 10 nM and the inhibition at 0.111 µM came out at 97%.
